Results reported in patent US20160002248A1, “GLS1 INHIBITORS FOR TREATING DISEASE” (Board of Regents, The University of Texas System, priority 2014, published 2016).

Assays:
[1] = molecular target: T1, purified recombinant human GAC (GLS1) (Homo sapiens, UniProt O94925); assay: GLS1 Enzymatic Activity Assay (dual-coupled enzymatic assay); type: biochemical
T1 sequence (O94925 55-598 isoform O94925-3 limits assumed): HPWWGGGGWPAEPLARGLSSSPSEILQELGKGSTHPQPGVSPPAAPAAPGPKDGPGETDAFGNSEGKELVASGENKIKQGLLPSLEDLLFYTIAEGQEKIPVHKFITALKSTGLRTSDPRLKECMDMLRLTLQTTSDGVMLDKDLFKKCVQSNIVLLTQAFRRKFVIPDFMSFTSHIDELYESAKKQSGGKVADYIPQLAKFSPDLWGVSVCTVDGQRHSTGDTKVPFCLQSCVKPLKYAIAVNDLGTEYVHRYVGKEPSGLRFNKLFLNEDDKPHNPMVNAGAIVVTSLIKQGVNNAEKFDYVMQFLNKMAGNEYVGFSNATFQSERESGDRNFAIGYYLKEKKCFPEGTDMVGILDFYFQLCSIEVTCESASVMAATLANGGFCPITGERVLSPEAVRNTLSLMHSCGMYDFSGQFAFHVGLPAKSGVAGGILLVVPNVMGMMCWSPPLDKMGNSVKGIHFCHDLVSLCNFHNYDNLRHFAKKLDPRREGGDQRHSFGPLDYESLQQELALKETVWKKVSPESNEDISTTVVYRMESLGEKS
Description: GLS1 Enzymatic Activity Assay
The inhibition of purified recombinant human GAC by varying concentrations of inhibitors is assessed via a dual-coupled enzymatic assay. The glutamate produced by the glutaminase reaction is used by glutamate oxidase to produce α-ketoglutarate, ammonia, and hydrogen peroxide, with this hydrogen peroxide subsequently being used by horseradish peroxidase to produce resorufin in the presence of Amplex UltraRed. The assay buffer consisted of 50 mM Hepes (pH 7.4), 0.25 mM EDTA and 0.1 mM Triton X-100. GAC was incubated with potassium phosphate (10 minutes at room temperature) prior to incubation with inhibitor (10 minutes at room temperature). The final reaction conditions were as follows: 2 nM GAC, 50 mM potassium phosphate, 100 mU/mL glutamate oxidase (Sigma), 1 mM glutamine (Sigma), 100 mU/mL horseradish peroxidase (Sigma), 75 μM Amplex UltraRed (Life Technologies), and 1% (v/v) DMSO. The production of resorufin was monitored on a Perkin Elmer Envision plate reader (excitation 530 nm, emission 590 nm) either in a kinetics or endpoint mode (at 20 minutes). IC50 values were calculated using a four-parameter logistic curve fit.

[2] = test system: A549 cells; assay: Proliferation Assay (A549 cell viability, Cell Titer Fluor); type: cell-based; settings: Homo sapiens, 72 hours
Description: A549 cells were routinely maintained in RPMI 1640 media (Gibco catalog number 11875-093) supplemented with 10% dialyzed fetal bovine serum using a humidified incubator (37° C., 5% CO2 and ambient O2). In preparation for the viability assay, cells were inoculated into 384-well black CulturPlates (Perkin Elmer) at a density of 1000 cells/well in a volume of 40 uL. Following a 24-hour incubation at 37° C., 5% CO2 and ambient O2, cells were treated with compound (10 uL) in a final DMSO concentration of 0.5% (v/v). The microplates were then incubated for 72 hours (37° C., 5% CO2 and ambient O2). Cell Titer Fluor (Promega) was subsequently added (10 uL of 6× reagent) and mixed for 15 minutes at room temperature. The plates were then incubated for 30 minutes (37° C., 5% CO2 and ambient O2) and fluorescence was subsequently read on the Perkin Elmer Envision plate reader. EC50 values were calculated using a four-parameter logistic curve fit.

**Q.** Which results are given for `O=C(NCc1ccccn1)c1cn(CCCCc2cc3c(-c4ccccc4)c[nH]c3nn2)nn1` [Example 20, 1-(4-(5-phenyl-7H-pyrrolo[2,3-c]pyridazin-3-yl)butyl)-N-(pyridin-2-ylmethyl)-1H-1,2,3-triazole-4-carboxamide]?
**A.** IC50 [1]: 500 to 5000 nM; EC50 [2]: > 5000 nM

**Q.** Which IC50 [1] does the source give for `O=C(NCc1ccccn1)c1cn(CCCCc2cc3cc(C4(O)COC4)[nH]c3nn2)nn1` [Example 21, 1-(4-(6-(3-hydroxyoxetan-3-yl)-7H-pyrrolo[2,3-c]pyridazin-3-yl)butyl)-N-(pyridin-2-ylmethyl)-1H-1,2,3-triazole-4-carboxamide] here?
**A.** 100 to 500 nM

**Q.** What about the EC50 [2] of the same compound?
**A.** > 5000 nM

**Q.** `O=C(Cc1ccccc1)Nc1nnc(CCCCc2cnc3[nH]ccc3c2)s1` [Example 24, N-(5-(4-(1H-pyrrolo[2,3-b]pyridin-5-yl)butyl)-1,3,4-thiadiazol-2-yl)-2-phenylacetamide] was tested. Which IC50 [1] did it give?
**A.** 100 to 500 nM

**Q.** What about the EC50 [2] of the same compound?
**A.** > 5000 nM

**Q.** Which results are given for `O=C(Cc1ccccn1)Nc1nnc(CCCCc2cc3cc(Cc4ccccc4)[nH]c3nn2)s1` [Example 26, N-[5-(4-{6-benzyl-7H-pyrrolo[2,3-c]pyridazin-3-yl}butyl)-1,3,4-thiadiazol-2-yl]-2-(pyridin-2-yl)acetamide]?
**A.** IC50 [1]: < 100 nM; EC50 [2]: 100 to 500 nM

**Q.** Which IC50 [1] does the source give for `O=C(NCc1cccc(OC(F)(F)F)c1)c1cn(CCCCc2cc3cc[nH]c3nn2)nn1` [Example 27, 1-(4-{7H-pyrrolo[2,3-c]pyridazin-3-yl}butyl)-N-{[3-(trifluoromethoxy)phenyl]methyl}-1H-1,2,3-triazole-4-carboxamide] here?
**A.** 100 to 500 nM

**Q.** And the EC50 [2]?
**A.** 500 to 5000 nM

**Q.** What does the source list for `CC(C)Cc1cc2cc(CCCCn3cc(C(=O)NCc4ccccn4)nn3)nnc2[nH]1` [Example 28, 1-{4-[6-(2-methylpropyl)-7H-pyrrolo[2,3-c]pyridazin-3-yl]butyl}-N-(pyridin-2-ylmethyl)-1H-1,2,3-triazole-4-carboxamide]?
**A.** IC50 [1]: 500 to 5000 nM; EC50 [2]: 100 to 500 nM

**Q.** With `O=C(Cc1ccccc1)Nc1ccn(CCCCc2cc3cc(C4CC4)[nH]c3nn2)c(=O)c1` [Example 29, N-[1-(4-{6-cyclopropyl-7H-pyrrolo[2,3-c]pyridazin-3-yl}butyl)-2-oxo-1,2-dihydropyridin-4-yl]-2-phenylacetamide] as the compound, how does the IC50 [1] read?
**A.** 100 to 500 nM

**Q.** And the EC50 [2]?
**A.** 500 to 5000 nM

**Q.** Which results are given for `CC(C)(C)c1cc2cc(CCCCn3ccc(NC(=O)Cc4ccccc4)cc3=O)nnc2[nH]1` [Example 30, N-[1-(4-{6-tert-butyl-7H-pynolo[2,3-c]pyridazin-3-yl}butyl)-2-oxo-1,2-dihydropyridin-4-yl]-2-phenylacetamide]?
**A.** IC50 [1]: 100 to 500 nM; EC50 [2]: 500 to 5000 nM

**Q.** With `O=C(NCc1cccc(OC(F)(F)F)c1)c1cn(CCCCc2cc3cc(C4CC4)[nH]c3nn2)nn1` [Example 32, 1-(4-{6-cyclopropyl-7H-pyrrolo[2,3-c]pyridazin-3-yl}butyl)-N-{[3-(trifluoromethoxy)phenyl]methyl}-1H-1,2,3-triazole-4-carboxamide] as the compound, how does the IC50 [1] read?
**A.** < 100 nM

**Q.** And the EC50 [2]?
**A.** 100 to 500 nM

**Q.** Which results are given for `COc1cccc(CNC(=O)c2cn(CCCCc3cc4cc(C5CC5)[nH]c4nn3)nn2)n1` [Example 33, 1-(4-{6-cyclopropyl-7H-pyrrolo[2,3-c]pyridazin-3-yl}butyl)-N-[(6-methoxypyridin-2-yl)methyl]-1H-1,2,3-triazole-4-carboxamide]?
**A.** IC50 [1]: 100 to 500 nM; EC50 [2]: 500 to 5000 nM

**Q.** How did the IC50 [1] turn out when `O=C(NCc1ccccn1)c1cn(CCCCc2cc3cc(Cc4ccccc4)[nH]c3nn2)nn1` [Example 34, 1-(4-{6-benzyl-7H-pyrrolo[2,3-c]pyridazin-3-yl}butyl)-N-(pyridin-2-ylmethyl)-1H-1,2,3-triazole-4-carboxamide] was run?
**A.** < 100 nM

**Q.** And the EC50 [2]?
**A.** 500 to 5000 nM

**Q.** How did the IC50 [1] turn out when `Cc1ccc(CNC(=O)c2cn(CCCCc3cc4cc(C5CC5)[nH]c4nn3)nn2)cn1` [Example 35, 1-(4-{6-cyclopropyl-7H-pyrrolo[2,3-c]pyridazin-3-yl}butyl)-N-[(6-methylpyridin-3-yl)methyl]-1H-1,2,3-triazole-4-carboxamide] was run?
**A.** < 100 nM

**Q.** And the EC50 [2]?
**A.** 100 to 500 nM

**Q.** `O=C(NCc1cccnc1)c1cn(CCCCc2cc3cc(C4CC4)[nH]c3nn2)nn1` [Example 36, 1-(4-{6-cyclopropyl-7H-pyrrolo[2,3-c]pyridazin-3-yl}butyl)-N-(pyridin-3-ylmethyl)-1H-1,2,3-triazole-4-carboxamide] was tested. Which IC50 [1] did it give?
**A.** 100 to 500 nM

**Q.** What about the EC50 [2] of the same compound?
**A.** 100 to 500 nM

**Q.** How did the IC50 [1] turn out when `O=C(NCc1ccncc1)c1cn(CCCCc2cc3cc(C4CC4)[nH]c3nn2)nn1` [Example 37, 1-(4-{6-cyclopropyl-7H-pyrrolo[2,3-c]pyridazin-3-yl}butyl)-N-(pyridin-4-ylmethyl)-1H-1,2,3-triazole-4-carboxamide] was run?
**A.** 100 to 500 nM

**Q.** And the EC50 [2]?
**A.** 500 to 5000 nM

**Q.** For `O=C(NCc1ncccn1)c1cn(CCCCc2cc3cc(C4CC4)[nH]c3nn2)nn1` [Example 38, 1-(4-{6-cyclopropyl-7H-pyrrolo[2,3-c]pyridazin-3-yl}butyl)-N-(pyrimidin-2-ylmethyl)-1H-1,2,3-triazole-4-carboxamide], which IC50 [1] is on record?
**A.** 500 to 5000 nM

**Q.** What about the EC50 [2] of the same compound?
**A.** 500 to 5000 nM

**Q.** For `COc1ccnc(CNC(=O)c2cn(CCCCc3cc4cc(C5CC5)[nH]c4nn3)nn2)c1` [Example 39, 1-(4-{6-cyclopropyl-7H-pyrrolo[2,3-c]pyridazin-3-yl}butyl)-N-[(4-methoxypyridin-2-yl)methyl]-1H-1,2,3-triazole-4-carboxamide], which IC50 [1] is on record?
**A.** 100 to 500 nM

**Q.** And the EC50 [2]?
**A.** 100 to 500 nM

**Q.** What does the source list for `O=C(NCc1ccc(C(F)(F)F)nc1)c1cn(CCCCc2cc3cc(C4CC4)[nH]c3nn2)nn1` [Example 40, 1-(4-{6-cyclopropyl-7H-pyrrolo[2,3-c]pyridazin-3-yl}butyl)-N-{[6-(trifluoromethyl)pyridin-3-yl]methyl}-1H-1,2,3-triazole-4-carboxamide]?
**A.** IC50 [1]: < 100 nM; EC50 [2]: 500 to 5000 nM

**Q.** How did the IC50 [1] turn out when `O=C(NCc1ccc(Cl)nc1)c1cn(CCCCc2cc3cc(C4CC4)[nH]c3nn2)nn1` [Example 41, N-[(6-chloropyridin-3-yl)methyl]-1-(4-{6-cyclopropyl-7H-pyrrolo[2,3-c]pyridazin-3-yl}butyl)-1H-1,2,3-triazole-4-carboxamide] was run?
**A.** 100 to 500 nM

**Q.** What about the EC50 [2] of the same compound?
**A.** 500 to 5000 nM

**Q.** Which IC50 [1] does the source give for `COc1ccc(CNC(=O)c2cn(CCCCc3cc4cc(C5CC5)[nH]c4nn3)nn2)cn1` [Example 42, 1-(4-{6-cyclopropyl-7H-pyrrolo[2,3-c]pyridazin-3-yl}butyl)-N-[(6-methoxypyridin-3-yl)methyl]-1H-1,2,3-triazole-4-carboxamide] here?
**A.** < 100 nM

**Q.** What about the EC50 [2] of the same compound?
**A.** 500 to 5000 nM

**Q.** Which IC50 [1] does the source give for `O=C(NCc1cccc(OCC(F)(F)F)n1)c1cn(CCCCc2cc3cc(C4CC4)[nH]c3nn2)nn1` [Example 43, 1-(4-{6-cyclopropyl-7H-pyrrolo[2,3-c]pyridazin-3-yl}butyl)-N-{[6-(2,2,2-trifluoroethoxy)pyridin-2-yl]methyl}-1H-1,2,3-triazole-4-carboxamide] here?
**A.** < 100 nM

**Q.** And the EC50 [2]?
**A.** 500 to 5000 nM

**Q.** `COc1cc(CNC(=O)c2cn(CCCCc3cc4cc(C5CC5)[nH]c4nn3)nn2)ccn1` [Example 44, 1-(4-{6-cyclopropyl-7H-pyrrolo[2,3-c]pyridazin-3-yl}butyl)-N-[(2-methoxypyridin-4-yl)methyl]-1H-1,2,3-triazole-4-carboxamide] was tested. Which IC50 [1] did it give?
**A.** 100 to 500 nM

**Q.** What about the EC50 [2] of the same compound?
**A.** 500 to 5000 nM

**Q.** For `Cn1cnc(CNC(=O)c2cn(CCCCc3cc4cc(C5CC5)[nH]c4nn3)nn2)c1` [Example 45, 1-(4-{6-cyclopropyl-7H-pyrrolo[2,3-c]pyridazin-3-yl}butyl)-N-[(1-methyl-1H-imidazol-4-yl)methyl]-1H-1,2,3-triazole-4-carboxamide], which IC50 [1] is on record?
**A.** 100 to 500 nM

**Q.** What about the EC50 [2] of the same compound?
**A.** 500 to 5000 nM
